{
  "source": "paper PMC12935919",
  "about": "(Frontiers in Pharmacology, 2026)",
  "key": {"[1]": {"tested_on": "patients with muscle atrophy (ICD-10-CM code: M62.5)", "assay": "Clinical trial: 6-m walk test", "type": "in vivo, human", "experimental": "(§1) The study was conducted at Biosite Research Private Limited (Shanthipura, India) under the New Drugs and Clinical Trials Rules (2019) issued by CDSCO (Ministry of Health and Family Welfare, Government of India), and in compliance with GCP, applicable local regulatory requirements, the Declaration of Helsinki ([…]), ICMR guidelines (2017), and ICH-GCP E6 (R2). Ethical approval was obtained from the Excel Hospital Institutional Ethics Committee (ECR/1670/Inst/TG/2022) and ethics committees of other participating centers, and the trial was prospectively registered (CTRI/2024/01/061919). All participants provided written informed consent prior to any study procedures. […] Efficacy endpoints were evaluated as changes from baseline to Week 12; efficacy analyses were conducted in the per-protocol population, and safety analyses included all randomized participants who received at least one dose of study product (Supplementary Figure S2). […] Continuous variables were summarized as N, mean (SD), median, minimum, and maximum, and categorical variables as n (%), with percentages calculated as n/N × 100. Changes from baseline to Week 12 in DEXA-assessed muscle mass, 6-m walk test, and handgrip strength were analyzed using ANCOVA, adjusting for the corresponding baseline value. […]"}, "[2]": {"biological_target": "T1, human recombinant Myostatin-Fc protein (Mus musculus, UniProt O08689)", "T1 construct": "purchased Sino Biological 50441-M01H", "T1 sequence (O08689 268-376)": "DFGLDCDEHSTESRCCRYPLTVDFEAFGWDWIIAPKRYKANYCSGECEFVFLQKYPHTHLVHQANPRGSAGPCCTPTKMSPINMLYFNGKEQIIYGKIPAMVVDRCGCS", "assay": "Surface plasmon resonance (SPR) analysis, Biacore T200", "type": "binding", "conditions": "3.125 μM to 200 μM, 25 °C, HBS-EP", "experimental": "The human recombinant Myostatin-Fc protein (Sino Biological, #50441-M01H) was immobilized on the surface of a CM5 sensor chip at 2210.3 response units (RUs) using an EDC/NHS amine coupling kit, following the manufacturer’s instructions. […] Data analysis was performed using Biacore T200 Evaluation Software version 3.1 (Cytiva)."}, "C2C12 cells": {"tested_on": "C2C12 cells", "assay": "RT-PCR / RT-qPCR of MRF genes", "type": "cell-based", "conditions": "Day 3; Myf6, MyoD, MyoG; normalized to GAPDH", "experimental": "For RT-PCR, the PCR products were electrophoresed in 1.5% agarose gel containing EtBr at 100 V for 30 min and visualized using a ChemiDocTM XRS imaging system (Bio-Rad, Hercules, CA, USA). RT-qPCR was performed using SYBR Green PCR Master Mix (Applied Biosystems, Foster City, CA, USA) for quantitative analysis. Glyceraldehyde-3-phosphate dehydrogenase (GAPDH) was used as a housekeeping gene for normalization. Relative quantification (RQ) was calculated using the ΔΔCt method, and data were expressed as RQ values by comparing the threshold cycle (Ct) of each target gene to that of GAPDH. The linearity and amplification efficiency of the PCR reactions were evaluated using serial dilutions of cDNA, and all reactions were performed in triplicate. The primer sequences used were as follows: Myf5 forward ([NT]), Myf5 reverse ([NT]), Myf6 forward ([NT]), Myf6 reverse ([NT]), MyoD forward ([NT]), MyoD reverse ([NT]), MyoG forward ([NT]), MyoG reverse ([NT])."}, "[3]": {"tested_on": "Fc gamma-tagged myostatin/GDF-8", "assay": "ELISA-based receptor binding assay", "set-up": "species or system human", "experimental": "Plates were washed with PBST and blocked with 3% (w/v) BSA for 2 h at room temperature. They were then incubated for 2 h with Fc gamma-tagged myostatin/GDF-8 (Sino Biological, #50441-M01H) diluted in PBST. After another PBST wash, plates were treated with HRP-linked Anti-IgG Fc gamma (CST, #32935S, 1:1,000) for 2 h. Finally, color was developed with TMB (Sigma, #T0440), the reaction stopped with 1 M H2SO4, and absorbance was measured at 450 nm."}, "[4]": {"tested_on": "patients with muscle atrophy (ICD-10-CM code: M62.5)", "assay": "Clinical trial: handgrip strength (hand dynamometer)", "type": "in vivo, human", "experimental": "The study was conducted at Biosite Research Private Limited (Shanthipura, India) under the New Drugs and Clinical Trials Rules (2019) issued by CDSCO (Ministry of Health and Family Welfare, Government of India), and in compliance with GCP, applicable local regulatory requirements, the Declaration of Helsinki ([…]), ICMR guidelines (2017), and ICH-GCP E6 (R2). Ethical approval was obtained from the Excel Hospital Institutional Ethics Committee (ECR/1670/Inst/TG/2022) and ethics committees of other participating centers, and the trial was prospectively registered (CTRI/2024/01/061919). All participants provided written informed consent prior to any study procedures. Key eligibility criteria included adults aged ≥18 years with low muscle mass by DEXA (men: <7.0 kg/m^2; women: <5.4 kg/m^2) and either low handgrip strength (men: <28 kg; women: <18 kg) or low physical performance (6-m walk speed <1.0 m/s). Major exclusion criteria included uncontrolled systemic disease, musculoskeletal or neurological disorders, recent anabolic steroid use, and concomitant medications known to affect protein metabolism; full inclusion and exclusion criteria are provided in Supplementary Table S1. Of 89 patients screened, seven were screen failures and two withdrew prior to randomization; 80 eligible participants were enrolled and proceeded to the baseline/randomization visit (mean age 38.83 ± 9.91 years; range 23-69). […] The study was double-blind; participants, investigators, and study staff were unaware of treatment allocation throughout the trial. […] Efficacy endpoints were evaluated as changes from baseline to Week 12; efficacy analyses were conducted in the per-protocol population, and safety analyses included all randomized participants who received at least one dose of study product (Supplementary Figure S2). Of 80 randomized participants, 75 completed the study. Statistical analyses were performed using SAS (version 9.4; SAS Institute Inc., Cary, NC, USA). Continuous variables were summarized as N, mean (SD), median, minimum, and maximum, and categorical variables as n (%), with percentages calculated as n/N × 100. Changes from baseline to Week 12 in DEXA-assessed muscle mass, 6-m walk test, and handgrip strength were analyzed using ANCOVA, adjusting for the corresponding baseline value. Least-squares means (LSMs), 95% confidence intervals, and two-sided p-values were reported, with p < 0.05 considered statistically significant."}, "[5]": {"tested_on": "patients with muscle atrophy (ICD-10-CM code: M62.5)", "assay": "Clinical trial: muscle mass by DEXA", "type": "in vivo, human", "experimental": "as §1"}, "[6]": {"conditions": "Week 12, 200 mg/day, ANCOVA, p <0.01"}},
  "note": "No end group written: not given here.",
  "data": [
    {"substance": "EAEYEHL-OH [Myoki]", "values": [
      {"measurement": "Time to complete 6-meter walk test (TTC-6mWT), change from baseline to Week 12 (LS mean)", "setting": "[1]; 200 mg peptide/day oral, N = 38, 95% CI (−1.36 to −0.87), placebo −0.77", "result": -1.12, "unit": "s"},
      {"measurement": "Time to complete 6-meter walk test, difference between placebo and treatment (95% CI)", "setting": "[1]; [6]", "result": -0.34, "unit": "s"},
      {"measurement": "SPR binding to myostatin", "setting": "[2]; seven concentrations, CM5 chip, 2210.3 RU immobilized, 30 μL/min, steady-state affinity fit, Kd not given", "result": "binds to Myostatin"},
      {"measurement": "association and dissociation", "setting": "[2]; SPR", "result": "relatively rapid association and dissociation"},
      {"measurement": "response units (RUs)", "setting": "[2]; SPR", "result": "increased dose-dependently"},
      {"measurement": "MRF gene expression (mRNA)", "setting": "C2C12 cells", "result": "significant increase"},
      {"measurement": "binding to myostatin", "setting": "[3]; Myoki coated at 125, 250, 500, and 1,000 μM", "result": "directly and concentration-dependently binds to myostatin"},
      {"measurement": "myostatin binding compared to the control", "setting": "[3]; Myoki-coated plates, ≥62.5 μM, absorbance 450 nm", "result": "more than 150%"},
      {"measurement": "Hand grip strength test (Left hand), change from baseline to Week 12 (LS mean)", "setting": "[4]; 200 mg peptide/day oral, N = 38, 95% CI (0.77 to 1.37), placebo 0.81", "result": 1.07, "unit": "kg"},
      {"measurement": "Hand grip strength test (Right Hand), change from baseline to Week 12 (LS mean)", "setting": "[4]; 200 mg peptide/day oral, N = 38, 95% CI (0.94 to 1.60), placebo 0.85", "result": 1.27, "unit": "kg"},
      {"measurement": "Hand grip strength test (Left hand), difference between placebo and treatment (95% CI)", "setting": "[4]; Week 12, 200 mg/day, ANCOVA, p 0.02", "result": 0.27, "unit": "kg"},
      {"measurement": "Hand grip strength test (Right Hand), difference between placebo and treatment (95% CI)", "setting": "[4]; Week 12, 200 mg/day, ANCOVA, p 0.04", "result": 0.43, "unit": "kg"},
      {"measurement": "Lean muscle mass, change from baseline to Week 12 (LS mean)", "setting": "[5]; Myoki + arginine + maltodextrin, 200 mg peptide/day oral, N = 38, 95% CI (736.90 to 1124.7), placebo 225", "result": 930.8, "unit": "g"},
      {"measurement": "Lean muscle mass, difference between placebo and treatment (95% CI)", "setting": "[5]; [6]", "result": 705.8, "unit": "g"}
    ]}
  ]
}
